Test results as given in paper PMC11591947, “Peroxidase-like Nanoparticles of Noble Metals Stimulate Increasing Sensitivity of Flavocytochrome b2-Based L-Lactate Biosensors” (Biosensors, 2024).

Molecular target: T1, Flavocytochrome b2 (Fcb2, EC 1.1.2.3) (Ogataea polymorpha, UniProt A0A9P8PNE1)
T1 construct: gene OGATHE_001663
Assay: chronoamperometry on Fcb2/graphite electrode biosensor
Assay type: biochemical
Settings: immobilised enzyme (0.3 units, Nafion film, no nanoparticles); 1 mM PMS; +200 mV vs Ag/AgCl; apparent value of bioelectrode

T1 sequence (A0A9P8PNE1 55-553): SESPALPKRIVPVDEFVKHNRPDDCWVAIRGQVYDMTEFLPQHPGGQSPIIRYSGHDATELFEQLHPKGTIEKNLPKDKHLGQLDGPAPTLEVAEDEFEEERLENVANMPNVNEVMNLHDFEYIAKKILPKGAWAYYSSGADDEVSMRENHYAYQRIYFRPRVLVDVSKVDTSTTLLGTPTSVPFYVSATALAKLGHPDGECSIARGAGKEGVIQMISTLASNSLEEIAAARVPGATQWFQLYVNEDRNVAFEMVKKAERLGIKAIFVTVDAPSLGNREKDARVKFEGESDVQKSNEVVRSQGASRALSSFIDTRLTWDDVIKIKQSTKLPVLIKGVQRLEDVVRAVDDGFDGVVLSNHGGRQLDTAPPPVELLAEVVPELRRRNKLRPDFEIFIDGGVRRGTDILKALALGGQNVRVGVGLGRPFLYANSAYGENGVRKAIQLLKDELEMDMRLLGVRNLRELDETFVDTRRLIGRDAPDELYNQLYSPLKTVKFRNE

`C[C@H](O)C(=O)O` [L-lactate] was tested, and the “KM^app” value was “Calibration curves illustrating the current dependence on the L-lactate concentration for the ABS”.
